{"source": "patent US7632830B2", "about": "“Lactam compounds and pharmaceutical use thereof” (Ajinomoto Co., Inc., priority 2000, dated 2009)", "data": [{"tested_on": "adipose cells of rats", "assay": "Evaluation of the sugar-transporting activity (2-[14C(U)]-deoxy-D-glucose incorporation)", "type": "cell-based", "conditions": "concentration having a reinforcing effect corresponding to 50% of the reinforcing effect of insulin (100%); rat adipose cells", "units": {"A: sugar transporting activity (EC50)": "µg/mL", "EC50": "µg/mL"}, "values": [{"compound": "CSc1ccccc1[C@@H]1C2=C(CNC2=O)N[C@@H]2CCCC[C@H]2N1C(=O)CCc1ncco1", "note": "[Example 168]", "A: sugar transporting activity (EC50)": 0.070}, {"compound": "O=C1NCC2=C1[C@@H](c1ccccc1OC(F)(F)F)N(C(=O)CCc1nccs1)[C@@H]1CCCC[C@H]1N2", "note": "[Example 171]", "A: sugar transporting activity (EC50)": 0.070}, {"compound": "CCOc1ccccc1[C@@H]1C2=C(CNC2=O)N[C@@H]2CCCC[C@H]2N1C(=O)CCc1nccs1", "note": "[Example 172]", "A: sugar transporting activity (EC50)": 0.060}, {"compound": "CSc1ccccc1[C@@H]1C2=C(CNC2=O)N[C@@H]2CCCC[C@H]2N1C(=O)CCc1nccs1", "note": "[Example 173]", "A: sugar transporting activity (EC50)": 0.060}, {"compound": "COc1ccccc1[C@@H]1C2=C(CNC2=O)N[C@@H]2CCCC[C@H]2N1C(=O)CCc1ncc(C)s1", "note": "[Example 174]", "A: sugar transporting activity (EC50)": 0.050}, {"compound": "Cc1ccccc1[C@@H]1C2=C(CNC2=O)N[C@@H]2CCCC[C@H]2N1C(=O)CCc1ccccn1", "note": "[Example 175]", "A: sugar transporting activity (EC50)": 0.020}, {"compound": "COc1ccccc1[C@@H]1C2=C(CNC2=O)N[C@@H]2CCCC[C@H]2N1C(=O)CCc1ccccn1", "note": "[Example 176]", "A: sugar transporting activity (EC50)": 0.021}, {"compound": "COc1ccccc1[C@@H]1C2=C(CNC2=O)N[C@@H]2CCCC[C@H]2N1C(=O)CCc1ncccn1", "note": "[Example 177]", "A: sugar transporting activity (EC50)": 0.10}, {"compound": "CC(=O)N1[C@@H]2CCCC[C@H]2NC2=C(C(=O)NC2)[C@H]1c1ccc(Br)s1", "note": "[Example 180]", "EC50": 19}]}, {"tested_on": "adipose cells of rats", "assay": "Evaluation of the sugar-transporting activity (2-[14C(U)]-deoxy-D-glucose incorporation)", "type": "cell-based", "conditions": "insulin 100 nM; rat adipose cells", "values": [{"compound": "insulin: insulin (100 nM) having the effect of increasing the sugar transportation; reference for the reinforcing effect [reference compound]", "effect of increasing the sugar transportation relative to insulin-free control group": "about 7 times"}]}]}
